{
  "source": "PubChem BioAssay AID1259408",
  "about": "(Genetic Toxicology Data Bank (GENE-TOX), 2018)",
  "system": "GENE-TOX genotoxicity assays, various organisms and cells",
  "assay": "GENE-TOX mutagenicity studies",
  "conditions": "for call: Assay Type: In vivo carcinogenicity studies, Assay Code: CCG+",
  "key": {"[1]": {"conditions": "Species/Cell Type: Nonhuman, Evaluation Type: Evaluation A (Pre-1980)"}, "[2]": {"conditions": "Species/Cell Type: Salmonella typhimurium, Assay Type: Forward and reverse gene mutation, host-mediated assay, Assay Code: HMA+, Evaluation Type: Evaluation A (Pre-1980)"}, "[3]": {"conditions": "Species/Cell Type: Salmonella typhimurium (one or more of the five standard strains: TA98, TA100, TA1535, TA1537, and TA1538), Assay Type: Histidine reverse gene mutation, Ames assay, Assay Code: SALT, Evaluation Type: Evaluation A (Pre-1980)"}, "[4]": {"conditions": "Species/Cell Type: Escherichia coli polA (W3119 vs P3478), Assay Type: Rec-assay, DNA effects (bacterial DNA repair), Assay Code: RE1+, Evaluation Type: Evaluation A (Pre-1980)"}, "[5]": {"conditions": "Species/Cell Type: Saccharomyces cerevisiae, Assay Type: Mitotic recombination or gene conversion, Assay Code: YEH+, Evaluation Type: Evaluation A (Pre-1980)"}, "[6]": {"conditions": "Species/Cell Type: Salmonella typhimurium (one or more of the five standard strains: TA98, TA100, TA1535, TA1537, and TA1538), Assay Type: Histidine reverse gene mutation, Ames assay, Assay Code: SAL+, Evaluation Type: Evaluation A (Pre-1980)"}},
  "note": "Activity calls are given as the source filed them. The rule behind the calls is not given here.",
  "data": [
    {"smiles": "NC(N)=S", "values": [
      {"measurement": "mutagenic call", "setting": "Species/Cell Type: Allium cepa, Assay Type: Chromosome aberrations, Assay Code: ALC-, Evaluation Type: Evaluation A (Pre-1980)", "value": "inactive; negative"},
      {"measurement": "mutagenic call", "setting": "Species/Cell Type: Escherichia coli polA (W3110 vs P3478), Assay Type: Rec-assay, DNA effects (bacterial DNA repair), Assay Code: RE2-, Evaluation Type: Evaluation A (Pre-1980)", "value": "inactive; negative"},
      {"measurement": "mutagenic call", "setting": "Species/Cell Type: Escherichia coli polA (W3119 vs P3478), Assay Type: Rec-assay, DNA effects (bacterial DNA repair), Assay Code: RE1T, Evaluation Type: Evaluation A (Pre-1980)", "value": "no conclusion"},
      {"measurement": "mutagenic call", "setting": "Species/Cell Type: Fischer rat embryo (RLV/1706) cells, Assay Type: Cell transformation, viral enhanced, Assay Code: CTR+, Evaluation Type: Evaluation A (Pre-1980)", "value": "active; positive"},
      {"measurement": "mutagenic call", "setting": "Species/Cell Type: Fischer rat embryo (SA7/RE) cells, Assay Type: Cell transformation, viral enhanced, Assay Code: CTA+, Evaluation Type: Evaluation A (Pre-1980)", "value": "active; positive"},
      {"measurement": "mutagenic call", "setting": "Species/Cell Type: Mouse, Sex: Male, Assay Type: Sperm morphology, Assay Code: SPI-, Evaluation Type: Evaluation A (Pre-1980)", "value": "inactive; negative"},
      {"measurement": "call", "setting": "[1]", "value": "active; positive"},
      {"measurement": "mutagenic call", "setting": "Species/Cell Type: Nonhuman, Assay Type: Sister-chromatid exchange (SCE) in vitro, Assay Code: SC2+, Evaluation Type: Evaluation B (Post-1980)", "value": "active; positive"},
      {"measurement": "mutagenic call", "setting": "Species/Cell Type: Saccharomyces cerevisiae, Assay Type: Mitotic recombination or gene conversion, Assay Code: YEH-, Evaluation Type: Evaluation A (Pre-1980)", "value": "inactive; negative"},
      {"measurement": "mutagenic call", "setting": "Species/Cell Type: Salmonella typhimurium (one or more of the five standard strains: TA98, TA100, TA1535, TA1537, and TA1538), Assay Type: Histidine reverse gene mutation, Ames assay, Assay Code: SAL-, Evaluation Type: Evaluation A (Pre-1980)", "value": "inactive; negative"},
      {"measurement": "mutagenic call", "setting": "[2]", "value": "active; positive"},
      {"measurement": "mutagenic call", "setting": "Species/Cell Type: Syrian hamster embryo (SA7/SHE) cells, Assay Type: Cell transformation, viral enhanced, Assay Code: CT7-, Evaluation Type: Evaluation A (Pre-1980)", "value": "inactive; negative"},
      {"measurement": "mutagenic call", "setting": "Species/Cell Type: Syrian hamster embryo (SHE) cells, Assay Type: Cell transformation, clonal assay, Assay Code: CTC+, Evaluation Type: Evaluation A (Pre-1980)", "value": "active; positive"}
    ]},
    {"smiles": "COc1ccc2c(ccc3c4c(ccc32)C(C)CC4)c1", "note": "(stereo not drawn)", "values": [
      {"measurement": "mutagenic call", "setting": "[3]", "value": "no conclusion"}
    ]},
    {"smiles": "ONc1ccc2ccccc2c1", "values": [
      {"measurement": "mutagenic call", "setting": "Species/Cell Type: Chinese hamster ovary (CHO) cells, Assay Type: Forward gene mutation at the HPRT locus, Assay Code: CHO+, Evaluation Type: Evaluation B (Post-1980)", "value": "active; positive"},
      {"measurement": "mutagenic call", "setting": "[4]", "value": "active; positive"},
      {"measurement": "mutagenic call", "setting": "Species/Cell Type: Neurospora crassa, Assay Type: Forward gene mutation, Assay Code: NEF+, Evaluation Type: Evaluation A (Pre-1980)", "value": "active; positive"},
      {"measurement": "call", "setting": "[1]", "value": "active; positive"},
      {"measurement": "mutagenic call", "setting": "[5]", "value": "active; positive"},
      {"measurement": "mutagenic call", "setting": "[6]", "value": "active; positive"},
      {"measurement": "mutagenic call", "setting": "[2]", "value": "active; positive"}
    ]},
    {"smiles": "CN(N=O)C(=O)Oc1cccc2ccccc12", "values": [
      {"measurement": "mutagenic call", "setting": "Species/Cell Type: Bacillus subtilis (H17 vs M45T), Assay Type: Rec-assay, spot test, DNA effects (bacterial DNA repair), Assay Code: REX+, Evaluation Type: Evaluation A (Pre-1980)", "value": "active; positive"},
      {"measurement": "mutagenic call", "setting": "Species/Cell Type: Escherichia coli WP2, Assay Type: Tryptophan reverse gene mutation, Assay Code: WP2+, Evaluation Type: Evaluation A (Pre-1980)", "value": "active; positive"},
      {"measurement": "mutagenic call", "setting": "Species/Cell Type: Nonhuman, Assay Type: Sister-chromatid exchange (SCE) in vitro, Assay Code: SC2+D, Dose Response: With dose response, Evaluation Type: Evaluation B (Post-1980)", "value": "active; positive"},
      {"measurement": "mutagenic call", "setting": "Species/Cell Type: Saccharomyces cerevisiae, Assay Type: Mitotic recombination or gene conversion, Assay Code: YEC+, Evaluation Type: Evaluation A (Pre-1980)", "value": "active; positive"},
      {"measurement": "mutagenic call", "setting": "[6]", "value": "active; positive"}
    ]},
    {"smiles": "Cc1c(N(C)C)c(=O)n(-c2ccccc2)n1C", "values": [
      {"measurement": "mutagenic call", "setting": "Species/Cell Type: Nonhuman, Assay Type: Sister-chromatid exchange (SCE) in vitro, Assay Code: SC2-, Evaluation Type: Evaluation A (Pre-1980)", "value": "inactive; negative"}
    ]},
    {"smiles": "Cc1cc2ccccc2c2ccc3c(F)cccc3c12", "values": [
      {"measurement": "mutagenic call", "setting": "[3]", "value": "no conclusion"}
    ]},
    {"smiles": "Cc1c(N(C)CS(=O)(=O)O)c(=O)n(-c2ccccc2)n1C", "values": [
      {"measurement": "mutagenic call", "setting": "Species/Cell Type: Human, Assay Type: Sister-chromatid exchange (SCE) in vitro, Assay Code: SC1T, Evaluation Type: Evaluation B (Post-1980)", "value": "no conclusion"}
    ]},
    {"smiles": "OCC1CO1", "note": "(stereo not drawn)", "values": [
      {"measurement": "mutagenic call", "setting": "[4]", "value": "active; positive"},
      {"measurement": "mutagenic call", "setting": "Species/Cell Type: Human diploid fibroblasts, Assay Type: Unscheduled DNA synthesis (UDS) in vitro, DNA effects, Assay Code: UDH-, Evaluation Type: Evaluation A (Pre-1980)", "value": "inactive; negative"},
      {"measurement": "mutagenic call", "setting": "Species/Cell Type: Human lymphocytes, Assay Type: Sister-chromatid exchange (SCE) in vitro, Assay Code: SCL+D, Dose Response: With dose response, Evaluation Type: Evaluation B (Post-1980)", "value": "active; positive"},
      {"measurement": "mutagenic call", "setting": "Species/Cell Type: Human, Assay Type: Sister-chromatid exchange (SCE) in vitro, Assay Code: SC1+D, Dose Response: With dose response, Evaluation Type: Evaluation B (Post-1980)", "value": "active; positive"},
      {"measurement": "mutagenic call", "setting": "Species/Cell Type: Neurospora crassa, Assay Type: Reverse gene mutation, Assay Code: NER+, Evaluation Type: Evaluation A (Pre-1980)", "value": "active; positive"},
      {"measurement": "mutagenic call", "setting": "[5]", "value": "active; positive"},
      {"measurement": "mutagenic call", "setting": "[6]", "value": "active; positive"},
      {"measurement": "mutagenic call", "setting": "Species/Cell Type: Schizosaccharomyces pombe, Assay Type: Reverse gene mutation, Assay Code: YEZ+, Evaluation Type: Evaluation A (Pre-1980)", "value": "active; positive"},
      {"measurement": "mutagenic call", "setting": "Species/Cell Type: Syrian hamster embryo (SHE) cells, Assay Type: Cell transformation, clonal assay, Assay Code: CTCT, Evaluation Type: Evaluation A (Pre-1980)", "value": "no conclusion"}
    ]}
  ]
}
